Tests used:
[1] = system: BJ cell line (human foreskin fibroblasts); experiment: Mammalian cell drug susceptibility assay (Cell Titer Glo, 72 h); type: cell-based
Procedure: The BJ cell line (human foreskin fibroblasts), which express GLUT1 [26], was purchased from the ATTC and cultured according to recommendations. 1000 exponentially growing cells were plated per well (25 μL) in white polystyrene flat bottom sterile 384-well tissue culture treated plates (Corning), and incubated overnight at 37°C in a humidified 5% CO2 incubator. DMSO inhibitor stock solutions were pin-transferred (V&P Scientific) the following day. Plates were placed back in the incubator for 72 h incubation and equilibrated at room temperature for 20 min before addition of 25 μL Cell Titer Glo (Promega) to each well. Plates were shaken on an orbital shaker for 2 min at 500 rpm. Luminescence was read after 15 min on an Envision plate reader (Perkin Elmer). EC50 values were calculated with a custom program (RISE, Robust Investigation of Screening Experiments) using a four-parameter logistic equation.

[2] = system: intraerythrocytic P. falciparum parasites; design: method as in PMID 12792024; conditions: read-out: IC50 growth of intraerythrocytic P. falciparum parasites in vitro; cited from earlier work
P. berghei parasites = system: P. berghei parasites; design: method as in PMID 12792024; conditions: mice infected with P. berghei, 25 mg/kg (i.p.) twice daily; cited from earlier work
[3] = system: hepatic stage and ookinetes of P. berghei; design: method as in PMID 21169382, PMID 21402842; conditions: cited from earlier work
PfHT = PfHT (Plasmodium falciparum, UniProt Q7KWJ5); conditions: read-out: Ki for glucose uptake by PfHT; cited from earlier work
Sequence of PfHT (Q7KWJ5 whole entry): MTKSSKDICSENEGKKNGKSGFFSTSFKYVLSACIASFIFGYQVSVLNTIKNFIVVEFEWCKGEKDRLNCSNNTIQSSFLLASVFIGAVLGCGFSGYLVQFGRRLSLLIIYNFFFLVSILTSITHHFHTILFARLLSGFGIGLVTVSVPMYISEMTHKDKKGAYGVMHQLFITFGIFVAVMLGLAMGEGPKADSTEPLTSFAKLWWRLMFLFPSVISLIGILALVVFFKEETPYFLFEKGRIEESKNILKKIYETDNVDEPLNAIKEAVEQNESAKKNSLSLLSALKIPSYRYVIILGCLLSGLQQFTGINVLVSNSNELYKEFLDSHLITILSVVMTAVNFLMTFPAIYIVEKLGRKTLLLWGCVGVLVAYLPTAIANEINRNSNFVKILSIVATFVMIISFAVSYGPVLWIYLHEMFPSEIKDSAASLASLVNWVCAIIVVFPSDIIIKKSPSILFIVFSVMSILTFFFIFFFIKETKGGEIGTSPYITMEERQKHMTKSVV

human GLUT1 = target: T1, human GLUT1 (Homo sapiens, UniProt P11166); conditions: 1 mM concentration; cited from earlier work
T1 sequence (P11166 1-492): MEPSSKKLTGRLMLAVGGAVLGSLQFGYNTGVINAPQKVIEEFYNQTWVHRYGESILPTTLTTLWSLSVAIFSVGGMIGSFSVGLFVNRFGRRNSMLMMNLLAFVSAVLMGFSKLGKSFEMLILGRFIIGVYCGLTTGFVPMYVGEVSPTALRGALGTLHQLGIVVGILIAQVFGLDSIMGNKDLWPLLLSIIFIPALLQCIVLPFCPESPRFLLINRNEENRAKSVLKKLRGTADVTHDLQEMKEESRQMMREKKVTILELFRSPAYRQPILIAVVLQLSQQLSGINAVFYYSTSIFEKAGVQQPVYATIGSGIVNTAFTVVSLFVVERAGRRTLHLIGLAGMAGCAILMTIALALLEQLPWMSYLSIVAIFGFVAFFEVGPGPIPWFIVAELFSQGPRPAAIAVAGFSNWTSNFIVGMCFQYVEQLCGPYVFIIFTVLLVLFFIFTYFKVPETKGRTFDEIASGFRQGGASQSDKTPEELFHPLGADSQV

CC(C)=CCC[C@]1(C)C=Cc2c(O)c3c(c(CC=C(C)C)c2O1)O[C@]12C(=C[C@@H]4C[C@H]1C(C)(C)O[C@@]2(C/C=C(/C)C(=O)O)C4=O)C3=O [Gambogic acid, gambogic acid, reference compound]
EC50 [1]: 2.5 µM

C=CCCCCCCCCCO[C@@H]([C@H](O)[C@H](O)CO)[C@@H](O)C=O [compound 3361, 3-O-((undec-10-en)-1-yl)-D-glucose]
IC50 [2]: 15.7 µM | reduction in parasitemia (P. berghei parasites): 40% | inhibition of viability of liver and mosquito stages [3]: strong inhibition of viability | Ki (PfHT): 53 µM | inhibition of GLUT1 (human GLUT1): no significant inhibition
